Measurements from patent publication US20230278972A1, “SUBSTITUTED HALOALKYL SULFONANILIDE HERBICIDES” (FMC Corporation, priority 2020, published 2023).

Columns and labels:
Format in all cases: in vivo
[1] = test system: barnyardgrass (Echinochloa crus-galli); assay: Test A postemergence, barnyardgrass; details: Postemergence, 0 to 100 scale (0 no effect, 100 complete control)
Method in brief: (§1)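 Directed soil spray at planting gave the preemergence treatment, while foliar application to one- to two-leaf seedlings (2–10 cm) gave the postemergence one; pots held a loam and sand mixture and chemicals were carried in a non-phytotoxic solvent with surfactant.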

[2] = test system: Ryegrass, Italian (Italian ryegrass, Lolium multiflorum); assay: Test A postemergence, Ryegrass, Italian; details: Postemergence, 0 to 100 scale (0 no effect, 100 complete control)
Method in brief: (§2)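 Greenhouse pot test in a loam–sand blend; compounds delivered in a non-phytotoxic solvent carrying a surfactant, applied either as a directed spray to soil at seeding or over seedlings 2 to 10 cm high with one to two leaves.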

[3] = test system: barnyardgrass (Echinochloa crus-galli); assay: Test A preemergence, barnyardgrass; details: Preemergence; for Plant response rating, Barnyardgrass: 0 to 100 scale (0 no effect, 100 complete control); for Barnyardgrass plant response rating: 500 g ai/ha, visual injury on 0 to 100 scale (0 no effect, 100 complete control), approximately 10 days
Method in brief: as §2

[4] = test system: kochia (Bassia scoparia); assay: Test A postemergence, kochia; details: Postemergence, 0 to 100 scale (0 no effect, 100 complete control)
Method in brief: as §2

[5] = test system: pigweed (Amaranthus retroflexus); assay: Test A postemergence, pigweed; details: Postemergence, 0 to 100 scale (0 no effect, 100 complete control)
Method in brief: as §2

[6] = test system: ragweed (common ragweed, Ambrosia artemisiifolia); assay: Test A preemergence, ragweed; details: Preemergence; for Plant response rating, Ragweed: 0 to 100 scale (0 no effect, 100 complete control); for Ragweed plant response rating: 500 g ai/ha, visual injury on 0 to 100 scale (0 no effect, 100 complete control), approximately 10 days
Method in brief: as §2

[7] = test system: blackgrass (Alopecurus myosuroides); assay: Test A postemergence, blackgrass; details: Postemergence, 0 to 100 scale (0 no effect, 100 complete control)
Method in brief: as §2

[8] = test system: Foxtail, Giant (giant foxtail, Setaria faberi); assay: Test A preemergence, Foxtail, Giant; details: Preemergence; for Plant response rating, Foxtail, Giant: 0 to 100 scale (0 no effect, 100 complete control); for Foxtail, Giant plant response rating: 500 g ai/ha, visual injury on 0 to 100 scale (0 no effect, 100 complete control), approximately 10 days
Method in brief: as §2

[9] = test system: Ryegrass, Italian (Italian ryegrass, Lolium multiflorum); assay: Test A preemergence, Ryegrass, Italian; details: Preemergence; for Plant response rating, Ryegrass, Italian: 0 to 100 scale (0 no effect, 100 complete control); for Ryegrass, Italian plant response rating: 500 g ai/ha, visual injury on 0 to 100 scale (0 no effect, 100 complete control), approximately 10 days
Method in brief: as §2

[10] = test system: kochia (Bassia scoparia); assay: Test A preemergence, kochia; details: Preemergence; for Plant response rating, Kochia: 0 to 100 scale (0 no effect, 100 complete control); for Kochia plant response rating: 500 g ai/ha, visual injury on 0 to 100 scale (0 no effect, 100 complete control), approximately 10 days
Method in brief: as §2

[11] = test system: ragweed (common ragweed, Ambrosia artemisiifolia); assay: Test A postemergence, ragweed; details: Postemergence, 0 to 100 scale (0 no effect, 100 complete control)
Method in brief: as §2

[12] = test system: pigweed (Amaranthus retroflexus); assay: Test A preemergence, pigweed; details: for Plant response rating, Pigweed: 0 to 100 scale (0 no effect, 100 complete control); for Pigweed plant response rating: 500 g ai/ha, visual injury on 0 to 100 scale (0 no effect, 100 complete control), approximately 10 days
Method in brief: as §1

[13] = test system: corn (Zea mays); assay: Test A postemergence, corn; details: Postemergence, 0 to 100 scale (0 no effect, 100 complete control)
Method in brief: as §2

[14] = test system: galium (catchweed bedstraw, Galium aparine); assay: Test A postemergence, galium; details: Postemergence, 0 to 100 scale (0 no effect, 100 complete control)
Method in brief: as §1

[15] = test system: wheat (Triticum aestivum); assay: Test A postemergence, wheat; details: Postemergence, 0 to 100 scale (0 no effect, 100 complete control)
Method in brief: as §1

[16] = test system: Foxtail, Giant (giant foxtail, Setaria faberi); assay: Test A postemergence, Foxtail, Giant; details: Postemergence, 0 to 100 scale (0 no effect, 100 complete control)
Method in brief: as §2

[17] = 500 g ai/ha, visual injury approx. 10 days
[18] = 125 g ai/ha, visual injury, approx. 10 days
[19] = 1000 g ai/ha, visual injury, approx. 10 days

Row | SMILES | Plant response rating, Barnyardgrass ([1]; 125 g ai/ha) | Plant response rating, Barnyardgrass [1, 17] | Plant response rating, Ryegrass, Italian ([2]; 125 g ai/ha) | Plant response rating, Ryegrass, Italian [2, 17] | Plant response rating, Barnyardgrass [3, 18] | Barnyardgrass plant response rating [3] | Plant response rating, Kochia ([4]; 125 g ai/ha) | Plant response rating, Kochia [4, 17] | Plant response rating, Pigweed ([5]; 125 g ai/ha) | Plant response rating, Pigweed [5, 17] | Plant response rating, Ragweed [6, 18] | Ragweed plant response rating [6] | Plant response rating, Blackgrass ([7]; 125 g ai/ha) | Plant response rating, Blackgrass [7, 17] | Plant response rating, Foxtail, Giant [8, 18] | Foxtail, Giant plant response rating [8] | Plant response rating, Ryegrass, Italian [9, 18] | Ryegrass, Italian plant response rating [9] | Plant response rating, Kochia [10, 18] | Kochia plant response rating [10] | other results
1 | Cc1cc(F)c(C(=O)N2CCOCC2)cc1NS(=O)(=O)C(F)(F)F [Compound 240] | 40 | 70 | 30 | 60 | 0 | 50 | 50 | 80 | 30 | 50 | 30 | 50 | 0 | 10 | 30 | 80 | 40 | 70 | 70 | 90 | Plant response rating, Ragweed ([11]; 125 g ai/ha): 70; Plant response rating, Ragweed [11, 17]: 90; Plant response rating, Pigweed [12, 18]: 0; Pigweed plant response rating [12]: 80; Plant response rating, Corn ([13]; 125 g ai/ha): 20; Plant response rating, Corn [13, 17]: 10; Plant response rating, Galium ([14]; 125 g ai/ha): 50; Plant response rating, Galium [14, 17]: 70; Plant response rating, Wheat ([15]; 125 g ai/ha): 0; Plant response rating, Wheat [15, 17]: 30; Plant response rating, Foxtail, Giant ([16]; 125 g ai/ha): 20; Plant response rating, Foxtail, Giant [16, 17]: 60
2 | Cc1cc(C)c(C(=O)N2CCC(Cl)CC2)cc1NS(=O)(=O)C(F)(F)F [Compound 242] | – | – | – | – | – | – | – | – | – | – | – | – | – | – | – | – | – | – | – | – | Plant response rating, Barnyardgrass [1, 19]: 90; Plant response rating, Ryegrass, Italian [2, 19]: 0; Plant response rating, Barnyardgrass ([3]; 1000 g ai/ha): 100; Plant response rating, Kochia [4, 19]: 80; Plant response rating, Pigweed [5, 19]: 90; Plant response rating, Ragweed ([6]; 1000 g ai/ha): 90; Plant response rating, Blackgrass [7, 19]: 40; Plant response rating, Foxtail, Giant ([8]; 1000 g ai/ha): 100; Plant response rating, Ryegrass, Italian ([9]; 1000 g ai/ha): 100; Plant response rating, Kochia ([10]; 1000 g ai/ha): 90; Plant response rating, Ragweed [11, 19]: 90; Plant response rating, Pigweed ([12]; 1000 g ai/ha): 100; Plant response rating, Corn [13, 19]: 70; Plant response rating, Galium [14, 19]: 90; Plant response rating, Wheat [15, 19]: 60; Plant response rating, Foxtail, Giant [16, 19]: 90
3 | Cc1cc(C)c(N(S(=O)(=O)C(F)(F)F)S(=O)(=O)C(F)(F)F)cc1C(=O)N1CCC(Cl)CC1 [Compound 243] | 50 | 70 | 0 | 30 | 80 | 90 | 10 | 70 | 90 | 100 | 70 | 80 | 0 | 10 | 100 | 100 | 90 | 100 | 20 | 80 | Plant response rating, Ragweed ([11]; 125 g ai/ha): 30; Plant response rating, Ragweed [11, 17]: 90; Plant response rating, Pigweed [12, 18]: 100; Pigweed plant response rating [12]: 100; Plant response rating, Corn ([13]; 125 g ai/ha): 0; Plant response rating, Corn [13, 17]: 0; Plant response rating, Galium ([14]; 125 g ai/ha): 70; Plant response rating, Galium [14, 17]: 90; Plant response rating, Wheat ([15]; 125 g ai/ha): 0; Plant response rating, Wheat [15, 17]: 30; Plant response rating, Foxtail, Giant ([16]; 125 g ai/ha): 0; Plant response rating, Foxtail, Giant [16, 17]: 40
4 | COC1CCN(C(=O)c2cc(NS(=O)(=O)C(F)(F)F)c(Cl)cc2C)CC1 [Compound 246] | 70 | 90 | 0 | 10 | 40 | 100 | 20 | 80 | 90 | 90 | 80 | 90 | 20 | 0 | 90 | 100 | 70 | 100 | 40 | 90 | Plant response rating, Ragweed ([11]; 125 g ai/ha): 90; Plant response rating, Ragweed [11, 17]: 90; Plant response rating, Pigweed [12, 18]: 90; Pigweed plant response rating [12]: 100; Plant response rating, Corn ([13]; 125 g ai/ha): 20; Plant response rating, Corn [13, 17]: 40; Plant response rating, Galium ([14]; 125 g ai/ha): 90; Plant response rating, Galium [14, 17]: 90; Plant response rating, Wheat ([15]; 125 g ai/ha): 20; Plant response rating, Wheat [15, 17]: 60; Plant response rating, Foxtail, Giant ([16]; 125 g ai/ha): 60; Plant response rating, Foxtail, Giant [16, 17]: 90
